Test results reported in paper PMC8286840, “Identifying SARS-CoV-2 antiviral compounds by screening for small molecule inhibitors of Nsp3 papain-like protease” (Biochemical Journal, 2021).
Counter-ions that a name gives are not always drawn. Like-named read-outs stand apart in the source and are kept apart here.

Tests used:
[1] = biological target: T1, SARS-CoV-2 PLpro (nsp3 1564–1878) (Severe acute respiratory syndrome coronavirus 2, UniProt P0DTD1); assay: biochemical; design: FRET-quenched peptide (Pro3) cleavage by PLpro, 10 min pre-incubation, slope over 20 min, normalised to no-compound control; conditions: high concentration screen, read-out: % of control remaining
[2] = biological target: T1, SARS-CoV-2 PLpro (nsp3 1564–1878); assay: biochemical; design: FRET-quenched peptide (Pro3) cleavage by PLpro, 10 min pre-incubation, slope over 20 min, normalised to no-compound control; conditions: low concentration screen, read-out: % of control remaining

O=C(O)COC(=O)Cc1ccccc1Nc1c(Cl)cccc1Cl [Aceclofenac]
remaining activity at 3.75 µM ([1]; Well no.=2071): 102%
remaining activity at 1.25 µM ([2]; Well no.=2071): 103%

CCCCCCCCCCCCCCCC(=O)NCC(COP(=O)([O-])OCC[N+](C)(C)C)OC (racemic) [rac-2-Methoxy-3-hexadecanamido-1-propylphosphocholine]
remaining activity at 3.75 µM ([1]; Well no.=1078): 96.5%
remaining activity at 1.25 µM ([2]; Well no.=1078): 97.5%

COc1cc(Nc2nc3ccccc3nc2NS(=O)(=O)c2ccc(NC(=O)c3ccc(C)c(OC)c3)cc2)cc(OC)c1 [PI3K-IN-1]
remaining activity at 3.75 µM ([1]; Well no.=8600): 97.8%
remaining activity at 1.25 µM ([2]; Well no.=8600): 102%

Oc1ccc(Cn2cc[nH]c2=S)cc1 [1-(4-Hydroxybenzyl)imidazole-2-thiol]
remaining activity at 3.75 µM ([1]; Well no.=516): 105%
remaining activity at 1.25 µM ([2]; Well no.=516): 104%

OC[C@@H](O)C(O)[C@H](O)CO [D-Arabitol]
remaining activity at 3.75 µM ([1]; Well no.=6501): 93.2%
remaining activity at 1.25 µM ([2]; Well no.=6501): 92.6%

Cc1cc(N=Nc2ccc3c(c2)CCC(=O)N3)c(N)cc1O [ZL0420]
remaining activity at 3.75 µM ([1]; Well no.=8468): 95.2%
remaining activity at 1.25 µM ([2]; Well no.=8468): 103%

C[C@H]1c2cccc(O)c2C(=O)C2=C(O)[C@]3(O)C(=O)C(C(N)=O)=C(O)[C@@H](N(C)C)[C@@H]3[C@@H](O)[C@@H]21 [Doxycycline hydrochloride]
remaining activity at 3.75 µM ([1]; Well no.=396): 108%
remaining activity at 1.25 µM ([2]; Well no.=396): 105%

CCCc1c(-c2ccc(O)cc2)nn(-c2ccc(O)cc2)c1-c1ccc(O)cc1 [1,3,5-tris(4-hydroxyphenyl)-4-propyl-1H-pyrazole]
remaining activity at 3.75 µM ([1]; Well no.=468): 109%
remaining activity at 1.25 µM ([2]; Well no.=468): 105%

COC(=O)[C@H](Cc1ccc([N+](=O)[O-])cc1)NC(=O)c1cccc2ccccc12 [SB 328437]
remaining activity at 3.75 µM ([1]; Well no.=5812): 93.4%
remaining activity at 1.25 µM ([2]; Well no.=5812): 94.2%

CC(O)CC(=O)O (centres unmarked) [3-Hydroxybutyric acid]
remaining activity at 3.75 µM ([1]; Well no.=7117): 99%
remaining activity at 1.25 µM ([2]; Well no.=7117): 103%

CCCCCCCCOc1ccccc1C(=O)Nc1ccc(C(=O)OCC[N+](C)(CC)CC)cc1 [Otilonium (bromide)]
remaining activity at 3.75 µM ([1]; Well no.=6315): 97.2%
remaining activity at 1.25 µM ([2]; Well no.=6315): 103%

Cn1cncc1C[C@H](NC(=O)CCN)C(=O)O [Anserine]
remaining activity at 3.75 µM ([1]; Well no.=6581): 103%
remaining activity at 3.75 µM ([1]; Well no.=7890): 95.1%
remaining activity at 1.25 µM ([2]; Well no.=6581): 102%
remaining activity at 1.25 µM ([2]; Well no.=7890): 91.9%

Cn1c(=O)c2[nH]c(=O)[nH]c2n(C)c1=O [1,3-Dimethyluric acid]
remaining activity at 3.75 µM ([1]; Well no.=6819): 95.7%
remaining activity at 1.25 µM ([2]; Well no.=6819): 99.4%

C[C@]12CCC(=O)C=C1CC[C@@H]1[C@@H]2[C@@H](O)C[C@@]2(C)[C@H]1CC[C@]2(O)C(=O)CO [Hydrocortisone]
remaining activity at 3.75 µM ([1]; Well no.=562): 101%
remaining activity at 3.75 µM ([1]; Well no.=2212): 96%
remaining activity at 3.75 µM ([1]; Well no.=6439): 102%
remaining activity at 3.75 µM ([1]; Well no.=7331): 93.7%
remaining activity at 1.25 µM ([2]; Well no.=562): 101%
remaining activity at 1.25 µM ([2]; Well no.=2212): 93%
remaining activity at 1.25 µM ([2]; Well no.=6439): 99.3%
remaining activity at 1.25 µM ([2]; Well no.=7331): 93.2%

Clc1ccc(C(Cn2ccnc2)OCc2csc3c(Cl)cccc23)c(Cl)c1 (centres unmarked) [Sertaconazole nitrate]
remaining activity at 3.75 µM ([1]; Well no.=5411): 93%
remaining activity at 1.25 µM ([2]; Well no.=5411): 89.7%

Brc1ccc([C@H]2CN3CCSC3=N2)cc1 [S(-)-p-Bromotetramisole oxalate]
remaining activity at 3.75 µM ([1]; Well no.=99): 102%
remaining activity at 1.25 µM ([2]; Well no.=99): 104%

CCC(COC(=O)c1cc(OC)c(OC)c(OC)c1)(c1ccccc1)N(C)C (centres unmarked) [Trimebutine]
remaining activity at 3.75 µM ([1]; Well no.=4762): 105%
remaining activity at 1.25 µM ([2]; Well no.=4762): 103%

COc1ccccc1S(=O)(=O)Nc1ccc2c(c1)CN(C)C(=O)N2 [PFI-1]
remaining activity at 3.75 µM ([1]; Well no.=4844): 88.7%
remaining activity at 1.25 µM ([2]; Well no.=4844): 97%

CC[C@@]1(O)C(=O)OCc2c1cc1n(c2=O)Cc2cc3c(CN(C)C)c(O)ccc3nc2-1 [Topotecan.HCl]
remaining activity at 3.75 µM ([1]; Well no.=1964): 97.5%
remaining activity at 1.25 µM ([2]; Well no.=1964): 98.5%

COC(=O)CC[C@H](NC(=O)[C@H](CC(=O)OC)NC(=O)OCc1ccccc1)C(=O)N[C@H](C(=O)N[C@@H](CC(=O)OC)C(=O)CF)C(C)C [Z-DEVD-FMK]
remaining activity at 3.75 µM ([1]; Well no.=7172): 99.7%
remaining activity at 3.75 µM ([1]; Well no.=7636): 91.3%
remaining activity at 1.25 µM ([2]; Well no.=7172): 102%
remaining activity at 1.25 µM ([2]; Well no.=7636): 95.2%

CC(C)=CCC/C(C)=C/CC/C(C)=C/CSc1ccccc1C(=O)O [Farnesylthiosalicylic acid]
remaining activity at 3.75 µM ([1]; Well no.=567): 102%
remaining activity at 1.25 µM ([2]; Well no.=567): 102%

CCCSc1nc(N[C@@H]2C[C@H]2c2ccc(F)c(F)c2)c2nnn([C@@H]3C[C@H](OCCO)[C@@H](O)[C@H]3O)c2n1 [Ticagrelor]
remaining activity at 3.75 µM ([1]; Well no.=4738): 108%
remaining activity at 3.75 µM ([1]; Well no.=6329): 102%
remaining activity at 1.25 µM ([2]; Well no.=4738): 105%
remaining activity at 1.25 µM ([2]; Well no.=6329): 101%

O=C(Nc1ccccc1Br)N[C@@H]1CCN(c2ccc(C(F)(F)F)cn2)C1 [SB705498]
remaining activity at 3.75 µM ([1]; Well no.=4735): 106%
remaining activity at 1.25 µM ([2]; Well no.=4735): 103%

C[N+]1(C)CCCC(OC(=O)C(O)(c2ccccc2)c2ccccc2)C1 (centres unmarked) [Mepenzolate (Bromide)]
remaining activity at 3.75 µM ([1]; Well no.=7911): 100%
remaining activity at 1.25 µM ([2]; Well no.=7911): 102%

Ic1ccc(N2CCN(Cc3c[nH]c4ncccc34)CC2)cc1 [L-750,667 trihydrochloride]
remaining activity at 3.75 µM ([1]; Well no.=774): 106%
remaining activity at 1.25 µM ([2]; Well no.=774): 102%

C[N+](C)(C)CCOC(=O)CCC(=O)OCC[N+](C)(C)C [Succinylcholine chloride]
remaining activity at 3.75 µM ([1]; Well no.=1318): 103%
remaining activity at 3.75 µM ([1]; Well no.=6064): 96.6%
remaining activity at 1.25 µM ([2]; Well no.=1318): 103%
remaining activity at 1.25 µM ([2]; Well no.=6064): 99%

Cn1cnc2c(NC3CCCC3)ncnc21 [N6-Cyclopentyl-9-methyladenine]
remaining activity at 3.75 µM ([1]; Well no.=988): 99.1%
remaining activity at 1.25 µM ([2]; Well no.=988): 96.8%

C[C@H]1CN(C[C@H](Cc2ccccc2)C(=O)NCC(=O)O)CC[C@@]1(C)c1cccc(O)c1 [Alvimopan]
remaining activity at 3.75 µM ([1]; Well no.=6051): 96.9%
remaining activity at 1.25 µM ([2]; Well no.=6051): 95.7%

Cc1c(-c2c(-c3ccc(F)o3)sc3ncnc(O[C@H](Cc4ccccc4OCc4ccnn4CC(F)(F)F)C(=O)O)c23)ccc(OCCN2CCN(C)CC2)c1Cl [S63845]
remaining activity at 3.75 µM ([1]; Well no.=7208): 88.1%
remaining activity at 1.25 µM ([2]; Well no.=7208): 92.6%

CCCCC/C=C\C\C=C/C=C/C=C/[C@@H](O)[C@@H](O)CCCC(=O)O [5(S),6(R)-DIHETE]
remaining activity at 3.75 µM ([1]; Well no.=4373): 103%
remaining activity at 1.25 µM ([2]; Well no.=4373): 106%
